From US10202415B1, “Method of synthesizing of 3-oxolupenal nanoparticles” (KING SAUD UNIVERSITY, priority 2017, dated 2019)

Tests used:
Test in all cases: Antimicrobial activity, agar diffusion technique
Type in all cases: cell-based
[1] = tested on: Salmonella enteritidis(RCMB 010084)
[2] = tested on: Klebsiella pneumoniae (RCMB 0010093)
[3] = tested on: Proteous vulgaris (RCMB 010085)
[4] = tested on: Geotricum candidum (RCMB 05097)
[5] = tested on: Absidia corymbifera (RCMB 02564)
[6] = tested on: Candida albicans (RCMB 05036)
[7] = tested on: Streptococcus pyogenes (RCMB 010015)
[8] = tested on: Staphylococcus aureus (RCMB 010027)
[9] = tested on: Staphylococcus epidermidis (RCMB 010024)

## Gentamycin
[1]
  Zone of Inhibition (±S.D.): 25.2 ± 0.18
[2]
  Zone of Inhibition (±S.D.): 26.4 ± 0.15
[3]
  Zone of Inhibition (±S.D.): 23.4 ± 0.30

## C[C@@H]1[C@H](O)[C@@H](C)/C=C/C=C/C=C/C=C/C=C/C=C/C=C/[C@H](O[C@@H]2O[C@H](C)[C@@H](O)[C@H](N)[C@@H]2O)C[C@@H]2O[C@](O)(C[C@@H](O)C[C@@H](O)[C@H](O)CC[C@@H](O)C[C@@H](O)CC(=O)O[C@H]1C)C[C@H](O)[C@H]2C(=O)O [Amphotericin B]
[4]
  Zone of Inhibition (±S.D.): 27.0 ± 0.20
[5]
  Zone of Inhibition (±S.D.): 23.0 ± 0.10
[6]
  Zone of Inhibition (±S.D.): 25.7 ± 0.10

## CC1(C)S[C@@H]2[C@H](NC(=O)[C@H](N)c3ccccc3)C(=O)N2[C@H]1C(=O)O [Ampicillin]
[7]
  Zone of Inhibition (±S.D.): 26.3 ± 0.34
[8]
  Zone of Inhibition (±S.D.): 27.3 ± 0.14
[9]
  Zone of Inhibition (±S.D.): 25.0 ± 0.18
